Drawing on patent US20230278972A1, “SUBSTITUTED HALOALKYL SULFONANILIDE HERBICIDES” (FMC Corporation, priority 2020, published 2023), this text covers pest or weed control and plant injury for 2 compounds.

Read-outs that look alike come from different tables or passages of the source.

Assay [1] concerns Foxtail, Giant (giant foxtail, Setaria faberi). The assay is described as follows: Test A preemergence, Foxtail, Giant. The format is in vivo. Conditions: Setaria faberi, pre-emergence, 240 h, Preemergence; for pest or weed control at 125 g/ha: 125 g ai/ha, visual injury, 0 to 100 scale (0 no effect, 100 complete control), approx. 10 days, read-out: Plant response rating, Foxtail, Giant; for pest or weed control at 500 g/ha: 500 g ai/ha, visual injury on 0 to 100 scale (0 no effect, 100 complete control), approximately 10 days, read-out: Foxtail, Giant plant response rating. In short, it runs like this: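 Greenhouse pot test in a loam–sand blend; compounds delivered in a non-phytotoxic solvent carrying a surfactant, applied either as a directed spray to soil at seeding or over seedlings 2 to 10 cm high with one to two leaves.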

Assay [2] has as its system wheat (Triticum aestivum). The assay is described as follows: Test A postemergence, wheat. The format is in vivo. The following applies: Triticum aestivum, post-emergence, 240 h, Postemergence, 0 to 100 scale (0 no effect, 100 complete control); for plant injury at 125 g/ha: 125 g ai/ha; for plant injury at 500 g/ha: 500 g ai/ha. In a few lines:
(§1)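 Postemergence ratings come from foliar sprays onto one- to two-leaf plants of 2 to 10 cm grown in loam/sand; preemergence ratings come from a directed spray onto the soil of newly seeded pots. Formulation was a surfactant-containing non-phytotoxic solvent blend.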

The subject of assay [3] is galium (catchweed bedstraw, Galium aparine). Put plainly: Test A postemergence, galium. In kind it is in vivo. The following applies: Galium, post-emergence, 240 h, Postemergence, 0 to 100 scale (0 no effect, 100 complete control); for pest or weed control at 125 g/ha: 125 g ai/ha; for pest or weed control at 500 g/ha: 500 g ai/ha. In a few lines:
as §1

The subject of assay [4] is rice (Oryza sativa). The assay is described as follows: Test B flooded paddy test, rice. Conditions: 336 h, read-out: Plant response rating, Rice.
For assay [5], the system named is ducksalad (Heteranthera limosa). The assay is described as follows: Test B flooded paddy test, ducksalad. Conditions: 336 h, read-out: Plant response rating, Ducksalad.
Where [6] appears, read: read-out: Plant response rating, Wheat.
[7] abbreviates: read-out: Plant response rating, Galium.

For the compound `Cc1cc(Cl)c(NS(=O)(=O)C(F)(F)F)cc1C(=O)N1CCC(F)(F)CC1` [Compound 229, N-[2-Chloro-5-[(4,4-difluoro-1-piperidinyl)carbonyl]-4-methylphenyl]-1,1,1-trifluoromethanesulfonamide], the figures for the pest or weed control at 125 g/ha in assay [1] and in assay [3] (setting [7]) were 60% and 90%, respectively. For the same compound, the pest or weed control at 500 g/ha came out at 100% in assay [1] and 90% in assay [3] (visual injury vs untreated controls after approx. 10 days, read-out: Galium plant response rating). In addition, the plant injury at 125 g/ha in assay [2] (setting [6]) turned out to be 60%. Further, the plant injury at 500 g/ha in assay [2] (visual injury vs untreated controls after approx. 10 days, read-out: Wheat plant response rating) is 70%. In addition, in assay [4], the plant injury at 250 g/ha turned out to be 10%. Besides, in assay [5], the pest or weed control at 250 g/ha amounted to 75%.

As for `Cc1cc(C)c(C(=O)N2CCC(F)(F)CC2)cc1NS(=O)(=O)C(F)(F)F` [Compound 241, N-[5-[(4,4-Difluoro-1-piperidinyl)carbonyl]-2,4-dimethylphenyl]-1,1,1-trifluoromethanesulfonamide], the pest or weed control at 125 g/ha in assay [1] and in assay [3] (setting [7]) was 80% each time. Further, the pest or weed control at 500 g/ha in assay [1] was 100%; in assay [3] (visual injury approx. 10 days, read-out: Plant response rating, Galium), 90%. In addition, in assay [2] (setting [6]), the plant injury at 125 g/ha is 30%. For the same compound, in assay [2] (visual injury approx. 10 days, read-out: Plant response rating, Wheat), the plant injury at 500 g/ha was 70%. In addition, in assay [4], the plant injury at 250 g/ha was 25%. The pest or weed control at 250 g/ha in assay [5] came out at 85%.
